The subject of this series is human colon carcinoma (HT29). In words: Antitumor activity on human colon carcinoma (HT29) transplanted in nude mice. The note with it: HT29 sc in nude mice; for TI% 46th day (tumor inhibition %): day 46. Here is the method:
Tumor fragment were implanted sc. Treatment started when tumor was palpable. TI % (tumor inhibition %) was calculated at day 46.

The mark [1] stands for this setting: iv q4dx6, dose 20 mg/kg, total dose 120 mg/kg.

With “copolymer of N-(2-hydroxypropyl)methacrylamide, {7-ethyl-10-hydroxy-20-O-[N-methacryloyl-glycyl-L-phenylalanyl-L-leucyl-glycyl]camptothecin} and N-(2-hydroxypropyl)methacryloylglycinamide [A1]”, the “TI% 46th day (tumor inhibition %)” value amounted to 77% (iv q4dx8, dose 5 mg/kg, total dose 40 mg/kg); 91% (iv q4dx8, dose 10 mg/kg, total dose 80 mg/kg); 98% (iv q4dx8, dose 20 mg/kg, total dose 160 mg/kg).

For the molecule `CCc1c2c(nc3ccc(O)cc13)-c1cc3c(c(=O)n1C2)COC(=O)[C@]3(O)CC` [1a, 7-ethyl-10-hydroxycamptothecin, reference compound], under setting [1], the Tox is on record as 1/7 and the “TI% 46th day (tumor inhibition %)” value turned out to be 97%.
